Here are results for 3 compounds from US10172824B2, “Crystal forms of scutellarin aglycone and preparation thereof” (YUNNAN INSTITUTE OF MATERIA MEDICA, priority 2014, dated 2019).

Data set [1] is described as follows: Stability of crystal forms. The settings on record: room temperature below 50° C.
For data set [2] the following is noted: compared with scutellarin; cited from earlier work.
Data set [3] relates to ischemia/reperfusion rats. The experiment in a line: Evaluation of the degree of nerve function impairment (behavior score) in MCAO ischemia/reperfusion rats. The data set is classed as in vivo, rat. Here is the method: SD male rat was fasted one night, with free access to water. At the day of experiment, the rat was anesthetized by intraperitoneal injection of 35% chloral hydrate (350 mg/kg), and fixed on its back. The skin was incised along the neck median line to expose the carotid artery at the right side, and the internal and external carotid artery were separated. 3# nylon wire (a diameter of 0.285 mm) was inserted from the free end of the external carotid artery, introduced into the internal carotid artery from the distal end of the external carotid artery, and inserted at the artery of Willis's circle in brain, to effectively occlude the middle cerebral artery. The inserted nylon wire was 18˜20 mm away from carotid artery bifurcation. The free end of the external carotid artery and the intra cavitary nylon wire were ligated, to prevent bleeding. […] After middle cerebral artery occlusion (MCAO) for 2 h, the nylon wire was carefully drawn out from the internal carotid artery, and the internal carotid artery was subjected to reperfusion. […] The animals were grouped depending on the score of nerve function. Three groups were classified in the experiment, 15 animals for each group. […] In the sham-operated group and the model control group, an equal volume of 0.3% sodium carboxymethyl cellulose (CMC-Na) was administered. […] 2.3.1 Evaluation of the degree of nerve function impairment: the behavioral disorder of the animal was scored by double blind method at 1 h (before administration), 12 h, 24 h, 36 h, 48 h after reperfusion, according to the score standards in the following table, so as to evaluate the degree of nerve function impairment, wherein the total score is 16, the higher the score is, the more serious the degree of nerve function impairment is in the animal (Li Qian, Wang Qiujuan, Guo Qinglong, Protective effect of TQ0701-2 on cerebral ischemia reperfusion injury in rats [J]. CHINESE JOURNAL OF CLINICAL PHARMACOLOGY AND THERAPEUTICS, 2010, 15(1): 36-40.) Data was processed by the statistical analysis software SPSS11.5, and the results were expressed by x±s, and mathematical statistics were performed by using t-test for normal distribution data and using rank-sum test for skewed distribution.

The test system of data set [4] is MCAO-induced ischemia-reperfusion rat. The experiment in a line: Cerebral infarction percentage 48 h after reperfusion (TTC staining) in MCAO ischemia/reperfusion rats. In kind it is in vivo. The procedure: SD male rat was fasted one night, with free access to water. At the day of experiment, the rat was anesthetized by intraperitoneal injection of 35% chloral hydrate (350 mg/kg), and fixed on its back. The skin was incised along the neck median line to expose the carotid artery at the right side, and the internal and external carotid artery were separated. 3# nylon wire (a diameter of 0.285 mm) was inserted from the free end of the external carotid artery, introduced into the internal carotid artery from the distal end of the external carotid artery, and inserted at the artery of Willis's circle in brain, to effectively occlude the middle cerebral artery. The inserted nylon wire was 18˜20 mm away from carotid artery bifurcation. The free end of the external carotid artery and the intra cavitary nylon wire were ligated, to prevent bleeding. […] After middle cerebral artery occlusion (MCAO) for 2 h, the nylon wire was carefully drawn out from the internal carotid artery, and the internal carotid artery was subjected to reperfusion. […] The animals were grouped depending on the score of nerve function. Three groups were classified in the experiment, 15 animals for each group. […] In the sham-operated group and the model control group, an equal volume of 0.3% sodium carboxymethyl cellulose (CMC-Na) was administered. […] The rat was decapitated and the brain was taken 48 h after reperfusion, and was quickly frozen. The brain was cut along the coronal plane to obtain a 2 mm-thick slice. The brain slice was put in 1% TTC stain solution, and stained at 37° C. in dark by incubation for 30 min. After fixing with 10% formaldehyde solution for 1 week, the digits and images were stored in computer by digital camera imaging system. The infarction area and the whole brain area were determined by Medical Microscopic image Compute-aided Analysis System (MIAS) of Image Center of Beihang University, and the cerebral infarction percentage was calculated (the percentage of the infarction area in the whole brain area). […]

For data set [5] the following is noted: cited from earlier work; for substances detected in rat plasma: oral.
The conditions of data set [6]: 360 mg scutellarin orally to a subject, 5 h (blood collected at 1, 3, 5, 8 h; determined only at 5 h); cited from earlier work.

Each structure is given as a SMILES string. Read-outs that look alike come from different tables or passages of the source.

Regarding `O=c1cc(-c2ccc(O)cc2)oc2cc(O)c(O)c(O)c12` [crystal form A, 5,6,7-trihydroxy-2-(4-hydroxyphenyl)-4H-benzopyran-4-one], the “stability of crystal form” value in data set [1] is on record as “the most stable crystal forms”.

As to `O=c1cc(-c2ccc(O)cc2)oc2cc(O)c(O)c(O)c12` [scutellarin aglycone, 5,6,7-trihydroxy-2-(4-hydroxyphenyl)-4H-benzopyran-4-one], in data set [2], the “oral absorption relative to scutellarin” value is listed as “about 3 fold” and the “permeability in gastrointestinal tract” value is reported as “higher permeability in gastrointestinal tract than scutellarin”. The “improvement rate of nerve function disorder” value in data set [3] (crystal form A, 45.8 mg/kg intragastric, 48 h, compared to model control group, P<0.05) is given as 34.97%. The “Behavior score at different time after reperfusion, 1 h” value in data set [3] (ischemia/reperfusion rats, 45.8 mg/kg, 1 h after reperfusion (before administration), total score 16, x ± s, n = 15) amounted to 10.57 ± 2.22. For the same compound, the “Behavior score at different time after reperfusion, 12 h” value in data set [3] (ischemia/reperfusion rats, 45.8 mg/kg, 12 h after reperfusion, total score 16, x ± s, n = 15) amounted to 7.96 ± 2.29. In addition, the “Behavior score at different time after reperfusion, 24 h” value in data set [3] (ischemia/reperfusion rats, 45.8 mg/kg, 24 h after reperfusion, total score 16, x ± s, n = 15) was determined as 7.15 ± 2.56. For the same compound, in data set [3] (ischemia/reperfusion rats, 45.8 mg/kg, 36 h after reperfusion, total score 16, x ± s, n = 15), the “Behavior score at different time after reperfusion, 36 h” value turned out to be 6.23 ± 2.87. Moreover, in data set [3] (ischemia/reperfusion rats, 45.8 mg/kg, 48 h after reperfusion, total score 16, x ± s, n = 15), the “Behavior score at different time after reperfusion, 48 h” value amounted to 5.69 ± 2.67. The “reducing rate of cerebral infarction area” value in data set [4] (crystal form A, 45.8 mg/kg intragastric, compared to model control group, P<0.05) came to 42.46%. Further, in data set [4] (ischemia/reperfusion rats, 45.8 mg/kg, TTC stain, x ± s, n = 15), the “Cerebral infarction percentage (%)” value is on record as 9.16 ± 0.09 %. Further, the “Reducing rate (%)” value in data set [4] (reduction of cerebral infarction percentage compared to the model control group, 45.8 mg/kg) is listed as 42.46%. Moreover, in data set [5] (20 mg/kg scutellarin aglycone), the “substances detected in rat plasma” value is given as “only scutellarin was detected”. Also, the “substances detected in rat plasma” value in data set [5] (200 mg/kg scutellarin aglycone) was “both scutellarin aglycone and scutellarin could be detected”. Besides, the metabolic stability entry in data set [5] (rats, intragastric, relative to scutellarin) is given as “metabolically stable relative to scutellarin”.

As for `O=C(O)[C@H]1O[C@@H](Oc2cc3oc(-c4ccc(O)cc4)cc(=O)c3c(O)c2O)[C@H](O)[C@@H](O)[C@@H]1O` [scutellarin], in data set [6], the “blood concentration of scutellarin” value is 20 ng/mL.
